Results reported in US11591323B2, “Muscarinic agonists as non-steroidal and non-opioid analgesics and methods of use thereof” (Barry University, priority 2019, dated 2023).
Several values for one entry are separate records, joined by “and”; a condition that tells them apart may be missing. Equal entries are not always repeated. Where two headings read alike, the source gives them in different places.

How the values were obtained:
[1] = molecular target: T1, M5 muscarinic receptor (Homo sapiens, UniProt P08912); assay: [3H]NMS competition binding, M5 CHO membranes; parameters: host or cells: CHO cells, stably transfected
T1 sequence (P08912 1-532): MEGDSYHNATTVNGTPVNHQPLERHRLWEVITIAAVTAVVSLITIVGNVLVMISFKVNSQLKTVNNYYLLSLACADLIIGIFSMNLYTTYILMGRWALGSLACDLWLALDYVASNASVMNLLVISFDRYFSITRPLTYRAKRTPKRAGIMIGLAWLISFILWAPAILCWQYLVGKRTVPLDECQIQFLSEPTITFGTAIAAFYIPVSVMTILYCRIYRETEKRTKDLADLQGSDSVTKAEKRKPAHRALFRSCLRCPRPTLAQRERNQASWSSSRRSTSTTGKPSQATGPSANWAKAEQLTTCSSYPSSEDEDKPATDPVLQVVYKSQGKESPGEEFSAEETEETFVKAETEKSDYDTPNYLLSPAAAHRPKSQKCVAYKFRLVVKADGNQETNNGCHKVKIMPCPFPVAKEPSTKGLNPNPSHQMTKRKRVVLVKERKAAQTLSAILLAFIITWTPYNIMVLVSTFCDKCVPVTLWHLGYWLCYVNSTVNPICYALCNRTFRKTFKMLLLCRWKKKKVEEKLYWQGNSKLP

[2] = molecular target: T2, M2 muscarinic receptor (Homo sapiens, UniProt P08172); assay: inhibition of forskolin-stimulated cAMP, M2 CHO cells (M2Gi); format: cell-based; parameters: host or cells: CHO cells, stably transfected
T2 sequence (P08172 1-466): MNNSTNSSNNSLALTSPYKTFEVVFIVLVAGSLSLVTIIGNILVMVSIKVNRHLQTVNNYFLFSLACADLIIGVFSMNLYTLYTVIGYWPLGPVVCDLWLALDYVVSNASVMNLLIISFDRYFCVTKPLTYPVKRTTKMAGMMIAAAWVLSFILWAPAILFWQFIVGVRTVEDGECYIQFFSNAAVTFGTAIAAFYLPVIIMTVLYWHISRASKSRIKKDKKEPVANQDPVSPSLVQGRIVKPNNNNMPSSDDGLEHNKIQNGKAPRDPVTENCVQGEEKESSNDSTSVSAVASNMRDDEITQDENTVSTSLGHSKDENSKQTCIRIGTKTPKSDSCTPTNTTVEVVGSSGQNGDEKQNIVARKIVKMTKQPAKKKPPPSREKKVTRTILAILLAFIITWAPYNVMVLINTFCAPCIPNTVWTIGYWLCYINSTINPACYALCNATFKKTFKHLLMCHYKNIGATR

[3] = molecular target: T3, M3 muscarinic receptor (Homo sapiens, UniProt P20309); assay: accumulation of IPX, M3 CHO cells (M3Gq); format: cell-based; parameters: host or cells: CHO cells, stably transfected
[4] = molecular target: T2, M2 muscarinic receptor; assay: stimulation of cAMP, M2 CHO cells (M2Gs); format: cell-based; parameters: host or cells: CHO cells, stably transfected; settings: for RAi: Table 8, relative to carbachol
Experimental: (§1) To determine level of cAMP, cells in suspension were pre-incubated for 1 h with 0.4 μM [^3H]adenine, washed, and incubated for 10 min in the presence of isobutylmethylxanthine and 10 μM forskolin. […] Incubation was ended by addition of 0.2 ml of 2.5 M HCl to the samples. Samples were applied to alumina columns (1.5 g of alumina per column), washed with 2 ml ammonium acetate (pH=7.0) and eluted from columns with 4 ml ammonium acetate and measured by liquid scintillation spectrometry. […] The incubation was stopped by addition of 0.5 ml of chloroform methanol HCl mixture (2:1:0.1). After separation of water and organic phases, 0.6 ml of water phase was applied to Dowex columns (1.5 g of Dowex per column), washed by 20 ml of 60 mM ammonium formate/5 mM sodium borate buffer and eluted from columns with 4 ml of 1M ammonium formate/0.1 formic acid buffer and measured by liquid scintillation spectrometry.
(§2) Measurements of the production of cAMP and inositol phosphates: Levels of second messengers cAMP and inositol phosphates were determined in radiochemical chromatography assays as described previously. To determine level of cAMP, cells in suspension were pre-incubated for 1 h with 0.4 μM [^3H]adenine, washed, and incubated for 10 min in the presence of isobutylmethylxanthine and 10 μM forskolin. […] Incubation was ended by addition of 0.2 ml of 2.5 M HCl to the samples. Samples were applied to alumina columns (1.5 g of alumina per column), washed with 2 ml ammonium acetate (pH=7.0) and eluted from columns with 4 ml ammonium acetate and measured by liquid scintillation spectrometry. […] For this purpose, new CHO cell lines stably expressing promiscuous G15 G-protein and M2 or M4 receptor were generated by transfection with pCMV/hygro vector and hygromycin selection. To determine the rate of formation of inositol phosphates IPX, suspended cells were pre-incubated with 0.1 μM [^3H]myo-inositol for 60 min, washed, and incubated with 10 mM LiCl for 15 min. […] The incubation was stopped by addition of 0.5 ml of chloroform methanol HCl mixture (2:1:0.1). After separation of water and organic phases, 0.6 ml of water phase was applied to Dowex columns (1.5 g of Dowex per column), washed by 20 ml of 60 mM ammonium formate/5 mM sodium borate buffer and eluted from columns with 4 ml of 1M ammonium formate/0.1 formic acid buffer and measured by liquid scintillation spectrometry.
(§3) For bi-phasic response, curves were inhibitory and stimulatory phase were fitted separately. Operational Model of Functional Agonism
(§4) [formula] where y is functional response at concentration of tested compound x, EMAX is maximal response of the system, KA is equilibrium dissociation constant and nH is slope factor. Eq. 5 was fitted to data from functional experiments. Eq. 5 was fitted to data by the two-step procedure described earlier. […] In the second step, Eq. 5 with EMAX fixed to the value determined in the first step was fitted to individual experimental data sets. Relative Intrinsic Activity

[5] = molecular target: T3, M3 muscarinic receptor; assay: accumulation of IPX, M3 CHO cells transfected with G15 (M3Gq+G15); format: cell-based; parameters: host or cells: CHO cells
Experimental: as §1, §2, §3, §4

[6] = M2 (↓cAMP), preferential response, Table 7, operational efficacy
[7] = M2Gi (↓cAMP), Table 8, relative to carbachol
[8] = M2Gi (↓cAMP), Table 8, to carbachol

T3 sequence (P20309 whole entry): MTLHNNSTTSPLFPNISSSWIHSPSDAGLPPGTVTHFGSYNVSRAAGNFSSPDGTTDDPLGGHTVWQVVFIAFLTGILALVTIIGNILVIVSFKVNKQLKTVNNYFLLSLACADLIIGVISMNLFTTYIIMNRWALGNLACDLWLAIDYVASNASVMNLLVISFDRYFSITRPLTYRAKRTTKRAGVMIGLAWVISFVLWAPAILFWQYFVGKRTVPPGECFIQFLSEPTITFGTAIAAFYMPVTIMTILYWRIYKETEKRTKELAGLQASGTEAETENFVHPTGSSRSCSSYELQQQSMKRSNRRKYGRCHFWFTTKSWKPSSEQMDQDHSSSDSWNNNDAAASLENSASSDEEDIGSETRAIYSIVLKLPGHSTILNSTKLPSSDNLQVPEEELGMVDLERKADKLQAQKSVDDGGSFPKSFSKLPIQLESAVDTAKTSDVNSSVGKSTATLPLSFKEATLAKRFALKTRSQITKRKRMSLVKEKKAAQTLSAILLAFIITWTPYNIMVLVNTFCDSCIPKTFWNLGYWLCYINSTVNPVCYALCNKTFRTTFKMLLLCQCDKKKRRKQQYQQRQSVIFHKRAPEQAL

With `O=C1CCCN1CC#CCN1CCCC1` [oxotremorine, reference compound] the Ki ([1]; Inhibition constants (KI) as negative logarithms, M5, high site, reference agonists, high affinity site) was 12.6 nM, the Ki ([1]; Inhibition constants (KI) as negative logarithms, M5, low site, reference agonists, low affinity site) was 537 nM and the EC50 [2] was 5.75 nM. The Kd [2] was 12.6 nM, the “E′MAX” value ([2]; M2 (↓cAMP), preferential response, Table 7) was 43 ± 1 % inhibition and the τ [2, 6] was 0.96 ± 0.08. The RAi ([2]; M2 (↓cAMP), preferential response, relative to carbachol, Tables 2, 3, 7) was 6.34 ± 0.15, the “Δlog(τ/KA)” value ([2]; M2 (↓cAMP), preferential response, to carbachol, Tables 2, 3, 7) was −0.81 ± 0.01 and the “E′MAX” value ([2]; M2Gi (↓cAMP), Table 8) was 43 ± 1 % inhibition. For the same molecule, the pEC50 ([2]; M2Gi (↓cAMP), Table 8) was 8.24 ± 0.04, the pKA ([2]; M2Gi (↓cAMP), Table 8) was 7.9 ± 0.1 and the τ ([2]; M2Gi (↓cAMP), Table 8) was 1.0 ± 0.1. For the same molecule, the RAi [2, 7] was 6.34 ± 0.15, the “Δlog(τ/KA)” value [2, 8] was −0.81 ± 0.01 and the EC50 [3] was 95.5 nM. For the same molecule, the “E′MAX” value [3] was 22 ± 2 fold over basal, the Kd [3] was 398 nM and the RAi [3] was 4.14 ± 0.38 and 4.14 ± 0.41. For the same molecule, the pEC50 [3] was 7.02 ± 0.04, the pKA [3] was 6.4 ± 0.1 and the “Δlog(τ/KA)” value [3] was −0.62 ± 0.06. The τ [3] was 2.97 ± 0.30 and 3.0 ± 0.3, the EC50 [4] was 1150 nM and the Kd [4] was 3980 nM. For the same molecule, the “E′MAX” value ([4]; M2Gs (↑cAMP), Table 8) was 3.1 ± 0.2 fold increase, the τ ([4]; M2Gs (↑cAMP), Table 8) was 2.3 ± 0.2 and the RAi ([4]; M2Gs (↑cAMP)) was 2.65 ± 0.018. For the same molecule, the “Δlog(τ/KA)” value ([4]; M2Gs (↑cAMP), Table 8, to carbachol) was −0.42 ± 0.04, the EC50 [5] was 100 nM and the “E′MAX” value [5] was 22 ± 2 fold over basal. For the same molecule, the Kd [5] was 398 nM, the RAi [5] was 4.14 ± 0.38 and the “Δlog(τ/KA)” value [5] was −0.62 ± 0.06. For the same molecule, the τ [5] was 2.9 ± 0.3.
In the case of `C1=CCN(Cc2cccs2)CC1.Cl` [Compound 6A, 1-[(thiophen-2-yl)methyl]-1,2,3,6-tetrahydropyridin-1-ium chloride], the Ki ([1]; competition with 1 nM [3H]NMS, read-out: Inhibition constants (Ki) as negative logarithms, M5 (converted)) is reported as 50100 nM, the Emax ([2]; CHO, M2 (↓cAMP), preferential response, Table 7, read-out: E′MAX) is reported as 50 ± 2% and the τ [2, 6] is reported as 1.32 ± 0.08. The Kd ([2]; M2 (↓cAMP), preferential response, Table 7, operational model, read-out: pKA (converted)) was 1580 nM, the EC50 ([2]; M2 (↓cAMP), preferential response, Table 7, read-out: pEC50 (converted)) was 724 nM and the “E′MAX” value ([2]; M2Gi (↓cAMP), Table 8) was 50 ± 2 % inhibition. It also gave a pEC50 ([2]; M2Gi (↓cAMP), Table 8) of 6.14 ± 0.05, a pKA ([2]; M2Gi (↓cAMP), Table 8) of 5.8 ± 0.1 and a τ ([2]; M2Gi (↓cAMP), Table 8) of 1.3 ± 0.1. For the same molecule, the RAi [2, 7] was 0.067 ± 0.007, the “Δlog(τ/KA)” value [2, 8] was 1.22 ± 0.08 and the “E′MAX” value ([3]; M3 (↑IPX), preferential response, Table 7) was 2.5 ± 0.2 fold over basal. The τ ([3]; M3 (↑IPX), preferential response, Table 7, operational efficacy) was 0.06 ± 0.01, the Kd ([3]; M3 (↑IPX), preferential response, Table 7, operational model, read-out: pKA (converted)) was 5010 nM and the EC50 ([3]; M3 (↑IPX), preferential response, Table 7, read-out: pEC50 (converted)) was 5010 nM. The RAi ([3]; M3 (↑IPX), preferential response, relative to carbachol, Tables 2, 3, 7) was 0.0058 ± 0.0005, the “Δlog(τ/KA)” value ([3]; M3 (↑IPX), preferential response, to carbachol, Tables 2, 3, 7) was 2.23 ± 0.23 and the “E′MAX” value ([3]; M3Gq (↑IPX), Table 8) was 2.4 ± 0.2 fold over basal. The τ ([3]; M3Gq (↑IPX), Table 8) was 0.05 ± 0.01, the RAi ([3]; M3Gq (↑IPX), Table 8, relative to carbachol) was 0.0056 ± 0.0008 and the “Δlog(τ/KA)” value ([3]; M3Gq (↑IPX), Table 8, to carbachol) was 2.26 ± 0.48. The EC50 ([3]; M3Gq (↑IPX), Table 8, read-out: pEC50 (converted)) was 5010 nM, the Kd ([3]; M3Gq (↑IPX), Table 8, read-out: pKA (converted)) was 5010 nM and the RAi ([4]; M2Gs (↑cAMP)) was 0. The “E′MAX” value ([5]; M3Gq + G15 (↑IPX), Table 8) was 2.5 ± 0.2 fold over basal, the τ ([5]; M3Gq + G15 (↑IPX), Table 8) was 0.06 ± 0.01 and the RAi ([5]; M3Gq + G15 (↑IPX), Table 8, relative to carbachol) was 0.0058 ± 0.0005. For the same molecule, the “Δlog(τ/KA)” value ([5]; M3Gq + G15 (↑IPX), Table 8, to carbachol) was 2.23 ± 0.23, the EC50 ([5]; M3Gq + G15 (↑IPX), Table 8, read-out: pEC50 (converted)) was 5010 nM and the Kd ([5]; M3Gq + G15 (↑IPX), Table 8, read-out: pKA (converted)) was 5010 nM.
